Measurements reported in patent publication US4849410A, “Pseudopterosin and synthetic derivatives thereof” (The Regents of the University of California, priority 1987, dated 1989).

Key:
P388 leukemia = assay: Evaluation in mice bearing ip P388 leukemia; format: in vivo, female B6D2F1 mice
Description: Compound I was also evaluated in mice bearing P388 Leukemia as follows:
Compound I was administered to the mice as a solution by first dissolving it in N,N-dimethylacetamide, adding an equal volume of Cremophor EL and then 8 volumes of water. The drug concentration was such that the desired dose was delivered in a volume of 0.5 ml per mouse. Dilutions from the highest dose in a dose-response study were made by the addition of water so that organic component of the formulation decreased with dose reduction; the drug remained in solution.
10^6 P388 leukemia cells were implanted intraperitoneal in female B6D2F1 mice which were randomized to treatment groups of six animals each. Treatment was initiated 24 hours after tumor implantation and was continued daily for five days (Cisplatin was administered on Days 1 and 5 for the Group 1 mice). Mice were weighted as groups on Days 1, 5 and 9 to provide an indication of drug toxicity. Mice were monitored for survival daily for 45 days, and the median day of death was determined compared to three groups of untreated controls to provide percent increase in lifespan (ILS). ILS values of greater than or equal to 40 percent represent actual reduction in tumor cell burden during the course of treatment and are taken as indications of biologically significant antitumor effect.

[1] = system: M5076 reticulum cell sarcoma; assay: Activity in mice bearing ip M5076 reticulum cell sarcoma; format: in vivo, female B6D2F1 mice
Description: (§1) Compound I was also evaluated for activity against solid tumors as follows:
(§2) One-half ml of a 10 percent (v:v) brei of tumor cells prepared from solid B16 melanoma or M5076 reticulum cell sarcoma was implanted ip in female B6D2F1 mice which were randomized to treatment groups of 8 animals each. Treatment was initiated 24 hours after tumer inoculation and was continued daily for 10 days (cisplatin was administered q4Dx4 on Days 1, 5, 9 and 13). Mice were monitored daily for 60 days, and the median day of death was determined compared to three groups of untreated controls to provide percent increase in lifespan (ILS). ILS values of greater than or equal to 50 percent represent biologically significant antitumor effects. Cisplatin was curative in M5076 with 6/8 tumor-free survivors on Day 60 at the top dose level.

B16 melanoma = assay: Activity in mice bearing ip B16 melanoma; format: in vivo, female B6D2F1 mice
Description: as §1, §2

[2] = system: Phorbol Myristate Acetate (PMA) Induced Topical Inflammation of the Mouse Ear; assay: Mouse Ear Anti-Inflammatory Assay (PMA, topical); format: in vivo; details: for Mean Ear Weight ± S.E.: Table IV, in mg; for Anti-inflammatory Activity: summary
Description: a. Mouse Ear Anti-Inflammatory Assay
Test compound and phorbol myristate acetate (PMA) are topically applied simultaneously to the pinnae of the ears of mice. Three hours twenty minutes after application, mice are sacrificed, ears removed and standard sized bores taken. Edema (inflammation) is measured as the difference in weight between control and treated ears.
The vheicle or carrier for the compounds used in the inflammatory and analgesic assays was as follows; For the mouse ear inflammatory assay, the vehicle was acetone. Controls received 25 microliters of acetone. Test compounds were applied to the experimental animals in 25 microliter volumes. For the sperm motility and fertilized sea urchin egg assays, the compounds were dissolved in 10 microliters undenatured ethanol.

[3] = system: Intraperitoneally Administered Phenylquinone; assay: Phenylquinone Assay for Analgesia (writhing); format: in vivo, mice; details: for Mean Writhes per Animal / No. Writhes / % Change Relative to Control: 25 mg/kg; for No. Writhes: total of group; for % Change Relative to Control: writhes per animal; for Analgesic Activity: summary
Description: d. Phenylquinone Assay for Analgesia
Test compound is injected subcutaneously into mice. After 30 minutes, phenylquinone is injected intraperitoneally to cause pain as indicated by writhing.
Test compound was administered subcutaneously in sesame oil at concentrations up to 5 mg per ml depending on the test compound dosage protocol. The highest dose was 50 mg per Kg. Control groups received sesame oil subcutaneously.

[4] = Group 2, cisplatin 1 mg/kg ip, Days 1-5
[5] = Group 2, cisplatin 2 mg/kg ip, Days 1-5
[6] = Group I, cisplatin 3 mg/kg ip, Days 1 and 5
[7] = Group I, cisplatin 6 mg/kg ip, Days 1 and 5

With `N.N.[Cl][Pt][Cl]` [Cisplatin, reference compound] the “Increase to Lifespan” value (P388 leukemia; [4]) was 75%, the “Median Survival Time” value (P388 leukemia; [4]) was 17.5 days and the “Weight Change Day 5” value (P388 leukemia; [4]) was -0.2 gm. For the same compound, the “Weight Change Day 9” value (P388 leukemia; [4]) was “+0.1 gm”, the “Increase to Lifespan” value (P388 leukemia; [5]) was 200% and the “Median Survival Time” value (P388 leukemia; [5]) was 30 days. The “Weight Change Day 5” value (P388 leukemia; [5]) was -2.5 gm, the “Weight Change Day 9” value (P388 leukemia; [5]) was -0.9 gm and the “Increase to Lifespan” value (P388 leukemia; [6]) was 127%. For the same compound, the “Median Survival Time” value (P388 leukemia; [6]) was 25 days, the “Weight Change Day 5” value (P388 leukemia; [6]) was “+0.3 gm” and the “Weight Change Day 9” value (P388 leukemia; [6]) was “+1.1 gm”. The “Increase to Lifespan” value (P388 leukemia; [7]) was 177%, the “Median Survival Time” value (P388 leukemia; [7]) was 30.5 days and the “Weight Change Day 5” value (P388 leukemia; [7]) was -1.2 gm. The “Weight Change Day 9” value (P388 leukemia; [7]) was -1.1 gm, the “Increase to Lifespan” value ([1]; cisplatin 3 mg/kg ip) was 121% and the “Median Survival Time” value ([1]; cisplatin 3 mg/kg ip) was 46.5 days. The “Weight Change on Day 9” value ([1]; cisplatin 3 mg/kg ip) was “+0.1 gm”, the “Increase to Lifespan” value ([1]; cisplatin 5 mg/kg ip) was greater than 200% and the “Median Survival Time” value ([1]; cisplatin 5 mg/kg ip) was greater than 60 days. For the same compound, the “Weight Change on Day 9” value ([1]; cisplatin 5 mg/kg ip) was -1.6 gm, the “tumor-free survivors on Day 60” value ([1]; top dose level of cisplatin) was 6/8 and the “Increase to Lifespan” value (B16 melanoma; cisplatin 3 mg/kg ip) was 36%. The “Median Survival Time” value (B16 melanoma; cisplatin 3 mg/kg ip) was 30 days, the “Weight Change on Day 9” value (B16 melanoma; cisplatin 3 mg/kg ip) was “+1.6 gm” and the “Increase to Lifespan” value (B16 melanoma; cisplatin 6 mg/kg ip) was 77%. For the same compound, the “Median Survival Time” value (B16 melanoma; cisplatin 6 mg/kg ip) was 39 days and the “Weight Change on Day 9” value (B16 melanoma; cisplatin 6 mg/kg ip) was “+0.5 gm”.
`CC(C)=CCCC(C)C1CCC(C)c2c1cc(C)c(O)c2OC1OCC(O)C(O)C1O` (stereo not shown) [Compound IX] was tested, and the “Mean Ear Weight ± S.E.” value ([2]; 25.0 ug/ear) was 15.85 ± 2.51, the “Mean Ear Weight ± S.E.” value ([2]; 50.0 ug/ear) was 14.04 ± 2.38 and the “Anti-inflammatory Activity” value [2] was “Active”. For the same compound, the “Mean Writhes per Animal” value [3] was 6.8, the “No. Writhes” value [3] was 68 and the “% Change Relative to Control” value [3] was -26%. For the same compound, the “Analgesic Activity” value [3] was “Active”.
`CC(=O)OC1COC(Oc2c(O)c(C)cc3c2C(C)CCC3C(C)CCC=C(C)C)C(O)C1O` (stereo not shown) [Compound VIII] was tested, and the “Mean Ear Weight ± S.E.” value ([2]; 25.0 ug/ear) was 13.93 ± 2.59, the “Mean Ear Weight ± S.E.” value ([2]; 50.0 ug/ear) was 12.07 ± 1.69 and the “Anti-inflammatory Activity” value [2] was “Active”. For the same compound, the “Analgesic Activity” value [3] was “Active”.
For `COc1c(C)c2c3c(c1O)C(C)CCC3C(C)CC2C=C(C)C` (stereo not shown) [Compound XII], the “Mean Writhes per Animal” value [3] was 12.5, the “No. Writhes” value [3] was 25 and the “% Change Relative to Control” value [3] was “+6%”.
For `CC(=O)OC1=C(C)C2(O)C3=C(C1=O)C(C)CCC3C(C)CC2C=C(C)C` (stereo not shown) [Compound XI], the “Mean Writhes per Animal” value [3] was 12.3, the “No. Writhes” value [3] was 37 and the “% Change Relative to Control” value [3] was “+4%”.
With `CC(=O)OC1C(O)COC(Oc2c(O)c(C)cc3c2C(C)CCC3C(C)CCC=C(C)C)C1O` (stereo not shown) [Compound X] the “Mean Ear Weight ± S.E.” value ([2]; 50.0 ug/ear) was 10.64 ± 1.93 and the “Anti-inflammatory Activity” value [2] was “Active”.
With `COc1ccc2c(c1)c(CC(=O)O)c(C)n2C(=O)c1ccc(Cl)cc1` [indomethacin, reference compound] the decrease in edema ([2]; 50 microgram) was 50%.
